We go through 22 molecules from US5292736A, “Morpholinoalkylindenes as antiglaucoma agents” (Sterling Winthrop Inc., priority 1993, dated 1994).

The target in assay [1] is T1, cannabinoid receptor (Rattus norvegicus, UniProt P20272).
T1 construct: Brain tissue from rats was homogenized; from tissue; host or cells: rat brain, washed homogenate membranes
The assay can be described thus: cannabinoid receptor binding test (CR), predictive of antiglaucoma activity. The protocol: (§1) In standard biological test procedures, compounds of formula I were tested for analgesic and cannabinoid receptor activity. The mouse vas deferens test correlates well with analgesic activity and has long been used to screen for such activity. Cannabinoid receptor binding is characteristic and predictive of the efficacy of intraocular pressure reducing compounds and was thus used to test the compounds of formula I for antiglaucoma activity.
Data from the cannabinoid receptor binding test (CR), predictive of antiglaucoma activity, was obtained as follows:
Brain tissue from rats was homogenized in ice cold 20 mM HEPES-NaOH, pH 7.0, diluted approximately 1:100 (w/v) with the same buffer and centrifuged at 48,000 g for 10 minutes at 4° C. The pellet was washed by resuspension and centrifugation as above. The final pellet was suspended (1:120 w/v) in 20 mM HEPES-NaOH, pH 7.0 and stored on ice for use within 1 hour.
Compounds (10 mM) were solubilized in a mixture of 0.3 N methane sulfonic acid - 13.5% ethanol. Cannabinoids were dissolved in absolute ethanol. Other compounds were dissolved in dimethylsulfoxide (DMSO). All compounds were diluted in 20 mM HEPES, pH 7.0 containing 5 mg/ml bovine serum albumin (BSA).
The final assay concentration of BSA was 1.0 mg/ml in these experiments. Final assay concentrations of ≤50 mM ethanol, ≤1×10^-3 N methane sulfonic acid, ≤2.5 mM ethanol+3×10^-4 N methane sulfonic acid or ≤3% DMSO had no effect on specific binding. The possible effects of all vehicles were controlled in each assay.
The assay was started with the addition of homogenate and the tubes incubated at 30° C. for 90 min in a shaking waterbath. Each tube contained 20 mM HEPES-NaOH buffer, pH 7.0, 1.0 mg/ml BSA, competing drug or vehicle, and 100-125 μg membrane protein in a 1 ml incubation volume. Saturation studies were conducted over 3 log units of radioligand concentration (0.1-22 nM). Specific binding was defined as the difference in binding in the presence and absence of 1.0 μM unlabeled 2-[(3-chloro-4-hydroxyphenyl)amino]benzene methanol, a molecule that is known to […] bind to cannabinoid receptors.
Samples were filtered over Whatman GF/B filters with 20 ml of 20 mM HEPES, pH 7.0, containing 0.5 mg/ml BSA. Radioactivity on the filters, expressed in dpm, was measured by liquid scintillation spectrometry. Assays were conducted in triplicate and experiments were repeated at least three times.
The results for the CR test are IC50 concentrations (in nM) or % inhibition at 1 μM and 30 μM concentrations.

In assay [2] the test system is acetylcholine-induced abdominal constriction. The assay can be described thus: acetylcholine-induced abdominal constriction test (ACH), oral. It is filed as in vivo. The following applies: oral administration. The source says: Data obtained by the oral administration of the invention in the acetylcholine-induced abdominal constriction test (ACH), a measure of analgesic effectiveness, are expressed in the table below as the ED50 in mg/kg or as the percent inhibition at a given dose level in mg/kg. The acetyl choline-induced abdominal constriction test (ACH) is described in Brit. J. Pharmacol., 32: 295 (1968) and U.S. Pat. No. 4,581,534, incorporated herein by reference.

The subject of assay [3] is mouse vas deferens. Put plainly: mouse vas deferens test (MVD), screening for analgesic activity. To be noted: considered active at 5.0 μM or less. It is filed as cell-based. Here is the method: as §1
The mouse vas deferens test (MVD), a means of screening for analgesic activity, is disclosed in U.S. Pat. No. 4,840,950, which is incorporated herein by reference.

Setting [4] is: 1 μM; rat brain membranes, pH 7.0, 30° C., 90 min.
The mark [5] stands for this setting: rat brain membranes, pH 7.0, 30° C., 90 min; read-out: CR IC50.
Setting [6] is: 30 μM; rat brain membranes, pH 7.0, 30° C., 90 min.

Like-named read-outs stand apart in the source and are kept apart here.

T1 sequence (P20272 whole entry): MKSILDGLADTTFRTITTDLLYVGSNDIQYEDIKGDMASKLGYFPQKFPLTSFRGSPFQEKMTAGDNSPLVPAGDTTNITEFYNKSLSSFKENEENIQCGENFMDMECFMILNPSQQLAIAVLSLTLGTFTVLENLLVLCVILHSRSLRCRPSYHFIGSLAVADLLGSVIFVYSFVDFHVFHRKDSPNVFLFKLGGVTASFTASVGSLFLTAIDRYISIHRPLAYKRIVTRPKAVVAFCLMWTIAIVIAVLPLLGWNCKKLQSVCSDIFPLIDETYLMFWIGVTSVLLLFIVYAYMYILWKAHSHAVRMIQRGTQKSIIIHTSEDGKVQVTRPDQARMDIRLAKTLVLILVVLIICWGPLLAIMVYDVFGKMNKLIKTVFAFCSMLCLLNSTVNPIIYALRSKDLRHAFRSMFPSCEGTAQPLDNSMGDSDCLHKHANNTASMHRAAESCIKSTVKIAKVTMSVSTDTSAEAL

As to `N#Cc1ccc(C=C2C=C(CCN3CCOCC3)c3ccccc32)cc1` [Example 17], the inhibition (in general, the change of the read-out against control, counted positive when it falls) at 1 µM in assay [1] (setting [4]) was 76%. Also, in assay [2], the median effective dose (ED50) (as a rule, the midpoint of the dose-response relation) is 100 mg/kg.
For the molecule `COc1ccc(C=C2C=C(CCCN3CCOCC3)c3ccccc32)c2ccccc12` [Example 15], the concentration for half-maximal inhibition (IC50) (as a rule, the midpoint of a concentration-inhibition curve) in assay [1] (setting [5]) was 12 nM. Moreover, in assay [2], the “Ach percent inhibition at 100 mg/kg” value is on record as 10%.
Consider `CSc1ccc(C=C2C=C(CCN3CCOCC3)c3ccccc32)cc1` [Example 4], for which, in assay [1] (setting [4]), the inhibition at 1 µM is 96%. The same molecule gave an ED50 in assay [2] of 50 mg/kg.
Consider `Fc1ccc(C=C2C=C(CCCN3CCOCC3)c3ccccc32)cc1` [Example 5], for which, in assay [1] (setting [6]), the inhibition at 30 µM was 5%. Also, the median effective dose (ED50) in assay [2] was found to be 52 mg/kg.
`C(=C1C=C(CCN2CCOCC2)c2ccccc21)c1cccc2[nH]ccc12` [Example 18] yielded an ED50 in assay [2] of 15 mg/kg. In addition, the IC50 in assay [3] was found to be 310 nM.
For `C(=C1C=C(CCN2CCOCC2)c2ccccc21)c1ccccc1` [Example 2], the inhibition at 1 µM in assay [1] (setting [4]) is 33%. Moreover, in assay [2], the 50% effect level (ED50) was put at a dose of 65 mg/kg. In addition, the midpoint of inhibition in assay [3], the IC50, lay at 79 nM.
In turn, `C[S+]([O-])c1ccc(C=C2C=C(CCN3CCOCC3)c3ccccc32)cc1` (centres unmarked) [Example 21, 4-[2-[[1-[4-(methylsulfinyl)phenyl]methylene]-1H-inden-3-yl]ethyl]morpholine] came in with an ED50 in assay [2] of 25 mg/kg. In assay [3], this molecule showed a half-inhibitory concentration (IC50) of 193 nM.
Consider `CN(C)c1ccc(C=C2C=C(CCN3CCOCC3)c3ccccc32)cc1` [Example 6], for which, in assay [1] (setting [6]), the inhibition at 30 µM is 88%. The molecule also returned an ED50 in assay [2] of 103 mg/kg.
As for `COc1ccc(C=C2C(C)=C(CCN3CCOCC3)c3ccccc32)c2ccccc12` [Example 16], in assay [2], the “Ach percent inhibition at 100 mg/kg” value is 30%. In assay [3], this molecule gave a half-inhibitory concentration (IC50) of 350 nM.
`CC1=C(CCN2CCOCC2)c2ccccc2C1=Cc1cccc2ccccc12` [Example 10]: the results for the IC50 in assay [1] (setting [5]) and in assay [3] were 10 nM and 45 nM, respectively. In assay [2], this molecule came in with an ED50 of 34 mg/kg.
With `COc1ccc(C=C2C=C(CCN3CCOCC3)c3ccccc32)cc1` [Example 1, 4-[2-[1-[(4-methoxyphenyl)methylene]-1H-inden-3-yl)ethyl]morpholine], the concentration for half-maximal inhibition (IC50) in assay [1] (read-out: CR IC50; rat brain membranes, pH 7.0, 30° C., 90 min) was 58 nM; in assay [3], 80 nM. This molecule also gave an ED50 in assay [2] of 46 mg/kg.
Turning to `C(=Cc1ccccc1)C=C1C=C(CCN2CCOCC2)c2ccccc21` [Example 14], the inhibition at 1 µM in assay [1] (setting [4]) was 68%. Besides, the “Ach percent inhibition at 100 mg/kg” value in assay [2] was found to be 20%.
Turning to `C(=C1C=C(CCCN2CCOCC2)c2ccccc21)c1cccc2ccccc12` [Example 12], the inhibition at 1 µM in assay [1] (setting [4]) is 97%. For the same molecule, the “Ach percent inhibition at 100 mg/kg” value in assay [2] is reported as 30%. In assay [3], this molecule had an IC50 of 96 nM.
As to `COc1ccc(C=C2C=C(CCN3CCOCC3)c3ccccc32)c2ccccc12` [Example 8], the 50% inhibitory concentration (IC50) was 0.9 nM in assay [1] (setting [5]) and 8 nM in assay [3]. This molecule showed an ED50 in assay [2] of 3.2 mg/kg.
In the case of `C(=C1C=C(CCN2CCOCC2)c2ccccc21)c1cccc2ccccc12` [Example 9], the results for the IC50 in assay [1] (setting [5]) and in assay [3] were 1 nM and 7 nM, respectively. The “Ach percent inhibition at 10 mg/kg” value in assay [2] (10 mg/kg) is recorded as 83%.
As to `COc1ccc(C=C2C=C(CCN3CCOCC3)c3ccccc32)cc1OC` [Example 13], the concentration for half-maximal inhibition (IC50) is 28 nM in assay [1] (setting [5]) and 19 nM in assay [3]. Further, it took a dose of 19 mg/kg to reach the 50% effect level in assay [2] (ED50).
On to `COc1ccc(C=C2C(C)=C(CCN3CCOCC3)c3ccccc32)cc1` [Example 3], for which the inhibition at 1 µM in assay [1] (setting [4]) was 45%. In addition, the “Ach percent inhibition at 100 mg/kg” value in assay [2] turned out to be 30%.
Turning to `COc1ccc(C(=O)OC(=C2C=C(CCN3CCOCC3)c3ccccc32)c2ccc(OC)cc2)cc1` [Example 22, (4-methoxyphenyl)[3-(2-[4-morpholinyl)ethyl)-1H-inden-1-ylidine]methyl 4-methoxy benzoate], in assay [1] (setting [4]), the inhibition at 1 µM was 51%. Besides, the “Ach percent inhibition at 100 mg/kg” value in assay [2] was 10%.
`C(=C1C=C(CCN2CCOCC2)c2ccccc21)c1c2ccccc2cc2ccccc12` [Example 20] registered a concentration for half-maximal inhibition (IC50) in assay [3] of 812 nM.
Take `Oc1ccc(C=C2C=C(CCN3CCOCC3)c3ccccc32)c2ccccc12` [Example 19]: in assay [1] (setting [4]), the inhibition at 1 µM is 97%. This molecule also had an ED50 in assay [2] of 2.7 mg/kg.
Consider `Fc1ccccc1C=C1C=C(CCN2CCOCC2)c2ccccc21` [Example 7], for which, in assay [1] (setting [6]), the inhibition at 30 µM was 78%. The molecule also displayed a median effective dose (ED50) in assay [2] of 86 mg/kg.
Regarding `CC1=C(CCN2CCOCC2)c2ccccc2C1=Cc1ccnc2ccccc12` [Example 11], in assay [2], the “Ach percent inhibition at 100 mg/kg” value is 40%. For the same molecule, in assay [3], the concentration for half-maximal inhibition (IC50) was 1650 nM.
